Source: PubChem BioAssay (NCI)
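Here, GI50 denotes the concentration required for 50% inhibition of growth. TGI: concentration producing complete growth inhibition.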

Experiments:
Test in all cases: NCI-60 cell line screen, 384-well format
SK-MEL-28 melanoma = tested on: SK-MEL-28 melanoma
HT29 colon = tested on: HT29 colon
HCC-2998 colon = tested on: HCC-2998 colon
SK-MEL-2 melanoma = tested on: SK-MEL-2 melanoma
UACC-257 melanoma = tested on: UACC-257 melanoma
CCRF-CEM leukemia = tested on: CCRF-CEM leukemia
ACHN renal = tested on: ACHN renal
HS 578T breast = tested on: HS 578T breast
HCT-116 colon = tested on: HCT-116 colon
NCI-H226 lung = tested on: NCI-H226 lung
LOX IMVI melanoma = tested on: LOX IMVI melanoma
OVCAR-5 ovarian = tested on: OVCAR-5 ovarian
HCT-15 colon = tested on: HCT-15 colon
TK-10 renal = tested on: TK-10 renal
SF-295 CNS = tested on: SF-295 CNS
KM12 colon = tested on: KM12 colon
SN12C renal = tested on: SN12C renal
RPMI-8226 leukemia = tested on: RPMI-8226 leukemia
SR leukemia = tested on: SR leukemia
MDA-MB-468 breast = tested on: MDA-MB-468 breast
MOLT-4 leukemia = tested on: MOLT-4 leukemia
MALME-3M melanoma = tested on: MALME-3M melanoma
CAKI-1 renal = tested on: CAKI-1 renal
IGROV1 ovarian = tested on: IGROV1 ovarian
UO-31 renal = tested on: UO-31 renal
BT-549 breast = tested on: BT-549 breast
HL-60(TB) leukemia = tested on: HL-60(TB) leukemia
U251 glioblastoma = tested on: U251 glioblastoma
SK-OV-3 ovarian = tested on: SK-OV-3 ovarian
OVCAR-8 ovarian = tested on: OVCAR-8 ovarian
OVCAR-3 ovarian = tested on: OVCAR-3 ovarian
SW-620 colon = tested on: SW-620 colon
SF-539 CNS = tested on: SF-539 CNS
A549 NSCLC = tested on: A549 NSCLC
SNB-75 CNS = tested on: SNB-75 CNS
PC-3 prostate = tested on: PC-3 prostate
NCI-H322M lung = tested on: NCI-H322M lung
MCF7 breast = tested on: MCF7 breast
UACC-62 melanoma = tested on: UACC-62 melanoma
COLO 205 colon = tested on: COLO 205 colon
SNB-19 CNS = tested on: SNB-19 CNS
MDA-MB-231 breast = tested on: MDA-MB-231 breast
NCI-H23 lung = tested on: NCI-H23 lung
786-0 renal = tested on: 786-0 renal
SF-268 CNS = tested on: SF-268 CNS
MDA-MB-435 melanoma = tested on: MDA-MB-435 melanoma
HOP-92 NSCLC = tested on: HOP-92 NSCLC

`CC(C)C[C@H](NC(=O)[C@H](Cc1ccccc1)NC(=O)c1cnccn1)B(O)O` gave a GI50 (SK-MEL-28 melanoma) of less than 0.01 µM, a TGI (SK-MEL-28 melanoma) of less than 0.01 µM and a GI50 (HT29 colon) of less than 0.01 µM. The TGI (HT29 colon) was less than 0.01 µM, the GI50 (HCC-2998 colon) was less than 0.0118 µM and the TGI (HCC-2998 colon) was less than 0.0165 µM. For the same compound, the GI50 (SK-MEL-2 melanoma) was less than 0.01 µM, the TGI (SK-MEL-2 melanoma) was less than 0.01 µM and the GI50 (UACC-257 melanoma) was less than 0.01 µM. It also gave a TGI (UACC-257 melanoma) of less than 0.01 µM, a GI50 (CCRF-CEM leukemia) of less than 0.01 µM and a TGI (CCRF-CEM leukemia) of less than 0.01 µM. The GI50 (ACHN renal) was less than 0.01 µM, the TGI (ACHN renal) was less than 0.01 µM and the GI50 (HS 578T breast) was less than 0.01 µM. It also gave a TGI (HS 578T breast) of less than 0.01 µM, a GI50 (HCT-116 colon) of less than 0.01 µM and a TGI (HCT-116 colon) of less than 0.01 µM. For the same compound, the GI50 (NCI-H226 lung) was less than 0.01 µM, the TGI (NCI-H226 lung) was less than 0.01 µM and the GI50 (LOX IMVI melanoma) was less than 0.01 µM. The TGI (LOX IMVI melanoma) was 0.0159 µM, the GI50 (OVCAR-5 ovarian) was less than 0.01 µM and the TGI (OVCAR-5 ovarian) was less than 0.0163 µM. The GI50 (HCT-15 colon) was less than 0.01 µM, the TGI (HCT-15 colon) was less than 0.0136 µM and the GI50 (TK-10 renal) was less than 0.01 µM. For the same compound, the TGI (TK-10 renal) was less than 0.01 µM, the GI50 (SF-295 CNS) was less than 0.01 µM and the TGI (SF-295 CNS) was less than 0.01 µM. For the same compound, the GI50 (KM12 colon) was less than 0.01 µM, the TGI (KM12 colon) was less than 0.0129 µM and the GI50 (SN12C renal) was less than 0.0108 µM. For the same compound, the TGI (SN12C renal) was 0.0189 µM, the GI50 (RPMI-8226 leukemia) was less than 0.01 µM and the TGI (RPMI-8226 leukemia) was less than 0.01 µM. It also gave a GI50 (SR leukemia) of less than 0.01 µM, a TGI (SR leukemia) of less than 0.01 µM and a GI50 (MDA-MB-468 breast) of less than 0.01 µM. The TGI (MDA-MB-468 breast) was less than 0.01 µM, the GI50 (MOLT-4 leukemia) was less than 0.01 µM and the TGI (MOLT-4 leukemia) was less than 0.01 µM. The GI50 (MALME-3M melanoma) was less than 0.01 µM, the TGI (MALME-3M melanoma) was less than 0.01 µM and the GI50 (CAKI-1 renal) was less than 0.01 µM. For the same compound, the TGI (CAKI-1 renal) was less than 0.012 µM, the GI50 (IGROV1 ovarian) was less than 0.011 µM and the TGI (IGROV1 ovarian) was less than 0.016 µM. The GI50 (UO-31 renal) was less than 0.01 µM, the TGI (UO-31 renal) was less than 0.01 µM and the GI50 (BT-549 breast) was less than 0.01 µM. The TGI (BT-549 breast) was less than 0.01 µM, the GI50 (HL-60(TB) leukemia) was less than 0.01 µM and the TGI (HL-60(TB) leukemia) was less than 0.01 µM. It also gave a GI50 (U251 glioblastoma) of less than 0.0111 µM, a TGI (U251 glioblastoma) of 0.0189 µM and a GI50 (SK-OV-3 ovarian) of less than 0.01 µM. The TGI (SK-OV-3 ovarian) was 0.0303 µM, the GI50 (OVCAR-8 ovarian) was less than 0.0111 µM and the TGI (OVCAR-8 ovarian) was less than 0.0158 µM. For the same compound, the GI50 (OVCAR-3 ovarian) was less than 0.01 µM, the TGI (OVCAR-3 ovarian) was less than 0.01 µM and the GI50 (SW-620 colon) was less than 0.01 µM. It also gave a TGI (SW-620 colon) of less than 0.01 µM, a GI50 (SF-539 CNS) of less than 0.01 µM and a TGI (SF-539 CNS) of less than 0.01 µM. It also gave a GI50 (A549 NSCLC) of less than 0.01 µM, a TGI (A549 NSCLC) of 0.062 µM and a GI50 (SNB-75 CNS) of less than 0.01 µM. It also gave a TGI (SNB-75 CNS) of less than 0.01 µM, a GI50 (PC-3 prostate) of less than 0.01 µM and a TGI (PC-3 prostate) of less than 0.0137 µM. It also gave a GI50 (NCI-H322M lung) of 0.0177 µM, a TGI (NCI-H322M lung) of 0.0918 µM and a GI50 (MCF7 breast) of less than 0.01 µM. For the same compound, the TGI (MCF7 breast) was 0.0139 µM, the GI50 (UACC-62 melanoma) was less than 0.01 µM and the TGI (UACC-62 melanoma) was less than 0.01 µM. It also gave a GI50 (COLO 205 colon) of less than 0.01 µM, a TGI (COLO 205 colon) of 0.054 µM and a GI50 (SNB-19 CNS) of less than 0.01 µM. The TGI (SNB-19 CNS) was less than 0.0158 µM, the GI50 (MDA-MB-231 breast) was less than 0.01 µM and the TGI (MDA-MB-231 breast) was less than 0.01 µM. It also gave a GI50 (NCI-H23 lung) of less than 0.01 µM, a TGI (NCI-H23 lung) of less than 0.01 µM and a GI50 (786-0 renal) of less than 0.01 µM. The TGI (786-0 renal) was less than 0.0113 µM, the GI50 (SF-268 CNS) was less than 0.01 µM and the TGI (SF-268 CNS) was less than 0.01 µM. The GI50 (MDA-MB-435 melanoma) was less than 0.01 µM, the TGI (MDA-MB-435 melanoma) was less than 0.01 µM and the GI50 (HOP-92 NSCLC) was less than 0.01 µM. For the same compound, the TGI (HOP-92 NSCLC) was less than 0.01 µM.
